This is an account of results in patent US20110003772A1, “USE OF SPHINGOLIPIDS IN THE TREATMENT OF TYPE 2 DIABETES MELLITUS, INSULIN RESISTANCE AND METABOLIC SYNDROME” (priority 2004, published 2011).

For experiment [1], the target named is T1, PPAR-α (Homo sapiens, UniProt Q07869).
T1 sequence (Q07869 1-468): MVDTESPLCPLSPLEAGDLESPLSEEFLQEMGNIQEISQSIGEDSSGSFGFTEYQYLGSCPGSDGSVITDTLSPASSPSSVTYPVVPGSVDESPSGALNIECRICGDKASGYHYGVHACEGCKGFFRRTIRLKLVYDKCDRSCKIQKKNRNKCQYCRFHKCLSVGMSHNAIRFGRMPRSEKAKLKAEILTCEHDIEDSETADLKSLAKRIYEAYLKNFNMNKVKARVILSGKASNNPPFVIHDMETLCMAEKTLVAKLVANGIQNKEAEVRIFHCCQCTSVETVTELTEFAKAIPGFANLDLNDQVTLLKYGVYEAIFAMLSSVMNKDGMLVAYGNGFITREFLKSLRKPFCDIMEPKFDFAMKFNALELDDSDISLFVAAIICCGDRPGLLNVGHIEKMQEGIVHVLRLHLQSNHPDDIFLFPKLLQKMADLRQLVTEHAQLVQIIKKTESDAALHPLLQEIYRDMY
Conditions: literature, Van Veldhoven et al., 2000; cited from earlier work.

Experiment [2] deals with 3T3-L1 adipocytes. Conditions: literature, Mei et al., 2002; cited from earlier work.
Experiment [3] has as its system insulin resistant mice (male ApoE3*Leiden mice). Kind of experiment: Hyperinsulinemic euglycemic clamp in insulin resistant mice on high fat, high fructose diet. It is filed as in vivo. The note with it: 0.3% (w/w) in high fat, compared to control group. From the text: (§1) The “gold standard” for insulin resistance is a test called the hyperinsulinemic euglycemic clamp study. It is a complicated and expensive study in which insulin and glucose is infused intravenously at several different doses to see what levels of insulin control different levels of glucose. Essentially, the method of Koopmans et al., 2001 and Voshol et al., 2001.
Male ApoE3*Leiden mice were fed with a high fat, high fructose diet (24% casein, 17% corn starch, 14% cellulose, 1% cholesterol, 24% bovine lard, 20% fructose; all w/w). After 8 weeks all mice in this group were moderately insulin resistant and were strongly insulin resistant after 18 weeks. Two parallel groups of mice (n=8) were fed for another 10 weeks the same diet, but containing 0.3% (w/w of the dry food) of either egg sphingomyelin or phytosphingosine.
In another parallel experiment, three groups of 8 mice each were fed the same high fat, high fructose diet for 18 weeks. One group received 0.3% egg sphingomyelin during the whole period, one group received 0.3% phytosphingosine during the whole period and the last group served as the control group (i.e. received no additional sphingolipid).
(§2) All mice were fasted overnight and anaesthetised by intraperitoneal injection of Hypnorm® (fentanyl-fluanisone) (0.5 ml/kg body weight) and midazolam (12.5 mg/kg body weight). Mice were kept anaesthetised by administering 50 μl of Hypnorm®/midazolam subcutaneous every 45 minutes.
(§3) A needle filled with PBS was inserted into the tail vein and was connected to two pumps (Model 100 series, KdScienticic, PA, USA): one with an insulin solution consisting of 3057 μl PBS, 400 μl citrate (30 μg/μl) and 543 μl insulin (1 U/ml), and one pump with a solution of 6.25 g D-glucose in 50 ml PBS. Before the infusion with the two solutions was started, a capillary of blood was drawn from the tail tip. Subsequently a bolus of 30 μl of insulin was given and the pumps were started (50 μl/h). The mice were given rest for 30 minutes. Then every 10 minutes the glucose level was measured with a glucose handmeter (Freestyle, Disetronic Medical Systems AG, Burgdorf, Germany) and the glucose infusion rate was adjusted until the glucose concentration in the blood was constant for at least 20 minutes and a capillary of blood was drawn.
(§4) The insulin and glucose levels in the capillaries were measured using a standard commercial kit, according to the manufacturer's instructions (Hexokinase method, Instruchemie); and insulin levels were measured by Ultrasensitive mouse insulin ELISA, enzyme immunoassay according to the manufacturer's instructions (Mercodia, Sweden)

For experiment [4], the system named is female ob/ob mice. Description: Plasma parameters and body weight in 4 h fasted ob/ob mice fed chow or chow with 1% phytosphingosine. The experiment is classed as in vivo. The note with it: for Body weight: mean ± SD of 10 mice; for Glucose (plasma) / Insulin (plasma): 4 h fasted, mean ± SD. Here is the method: 20 female ob/ob mice (C57B1/6 background) were obtained from Charles River, The Netherlands and were acclimatized for a period of 2 weeks within the TNO-facilities. After a 4 hour fast, blood was drawn by tail bleeding and the animals were randomized according to body weight and plasma glucose levels. […] The mice were put on a regular chow diet (control) or regular chow supplemented with 1% phytosphingosine (1% PS). After three weeks of treatment a blood sample was drawn after a 4 hours fast and body weight was determined. […] The 1% PS treated mice maintained their initial body weight. […] We observed no differences in insulin levels between the groups.

Experiment [5] has as its system female ob/ob mice. Kind of experiment: Hyperinsulinemic euglycemic clamp analysis in overnight fasted ob/ob mice. The experiment is classed as in vivo. Conditions: 1% PS diet; for Glucose (plasma) during clamp: overnight fasted. As for the experimental part: as §1, §2, §3, §4
1.5 weeks after the last blood sample (necessary for full recovery of the mice) the ob/ob mice were fasted overnight and subjected to a hyperinsulinemic euglycemic clamp analysis. […]

Where [6] appears, read: high fructose diet during the last 10 weeks of the 18 week experiment.
The mark [7] stands for this setting: high fructose diet during whole 18 weeks.
Setting [8] is: T = 0 (starting point, before treatment), 1% PS group.
Where [9] appears, read: T = 3 (3 weeks of chow with 1% PS).

On to ceramide, for which the “binding to the PPAR-α receptor” value in experiment [1] is “not able to bind”.
Consider `CCCCCCCCCCCCCCC[C@@H](O)[C@@H](N)COP(=O)(O)O` [sphinganine-1-phosphate], for which the “binding to the PPAR-α receptor” value in experiment [1] is on record as “not able to bind”.
As to `CCCCCCCCCCCCC/C=C/[C@@H](O)[C@H](CO)NC(C)=O` [N-acetyl-sphingenine], in experiment [1], the “binding to the PPAR-α receptor” value was “not able to bind”.
As to `CCCCCCCCCCCCC/C=C/[C@@H](O)[C@H](CO)NC(=O)CCCCCCCCCCCCCCC` [N-hexadecanoyl-sphingenine], the “binding to the PPAR-α receptor” value in experiment [1] is “not able to bind”.
As for `CCCCCCCCCCCCC/C=C/[C@@H](O)[C@H](CO)NC(C)=O` [C2-ceramide], in experiment [2], the “antilipolytic action of insulin” value is given as “decrease the antilipolytic action of insulin” and the lipolysis result was “stimulate lipolysis”.
sphingomyelin: the entries for the “infusion rate of glucose, percentage of the infusion rate in strongly insulin resistant control mice” value in experiment [3] (setting [6]) and in experiment [3] (setting [7]) were 102% and 117%, respectively. The “binding to the PPAR-α receptor” value in experiment [1] is “not able to bind”.
`CCCCCCCCCCCCCC[C@@H](O)[C@@H](O)[C@@H](N)CO` [phytosphingosine]: the “infusion rate of glucose, percentage of the infusion rate in strongly insulin resistant control mice” value in experiment [3] (setting [6]) was 114%; in experiment [3] (setting [7]), 102%. Besides, the Body weight is given as 42.2 ± 4.6 g in experiment [4] (setting [8]) and 41.7 ± 3.7 g in experiment [4] (setting [9]). For the same molecule, the “Glucose (plasma)” value in experiment [4] (setting [8]) is 23.9 ± 5.1 mmol/L; in experiment [4] (T = 3 (3 weeks of chow with 1% PS), P < 0.01 vs. control) it was 26.0 ± 7.0 mmol/L. Further, the “Insulin (plasma)” value in experiment [4] (setting [8]) is listed as 25.8 ± 14.1 ng/mL; in experiment [4] (setting [9]) it was 22.3 ± 6.8 ng/mL. The “glucose infusion rate (GIR)” value in experiment [5] (vs. 46±8 in control ob/ob mice, P=0.001) turned out to be 4.5 ± 0.96 mL/h/kg. The “Glucose (plasma) during clamp” value in experiment [5] (Basal period (no insulin added)) is on record as 7.3 ± 2.4 mmol/L; in experiment [5] (Hyperinsulinemic period), 4.8 ± 1.3 mmol/L.
As to phosphatidylcholine, the “binding to the PPAR-α receptor” value in experiment [1] is “not able to bind”.
On to `CCCCCCCCCCCCCCC[C@@H](O)[C@@H](N)CO` [sphinganine], for which, in experiment [1], the “binding to the PPAR-α receptor” value is listed as “strong binding ligands”.
Regarding `CCCCCCCCCCCCC/C=C/[C@@H](O)[C@@H](N)CO` [sphingenine], in experiment [1], the “binding to the PPAR-α receptor” value was “strong binding ligands”.
